Where two headings read alike, the source gives them in different places. Non-standard residues stand in square brackets, D forms with d. Residues, ends and D or L forms follow the SMILES beside them. ξ: configuration not given here. ξY = NC(Cc1ccc(O)cc1)C(=O)O; Nva = CCC[CH](N)C(=O)O
Columns and labels:
[1] = system: BDC 8-1.1α1 anti-B:9-23 T cell hybridoma; experiment: T cell stimulation assay, B:9-23 activated TCR 8-1.1α1; type: cell-based; conditions: Mus musculus, read-out: IC50 for anti-B:9-23 TCRs 8-1.1α1
[2] = system: BDC 12-4.1 anti-B:9-23 T cell hybridoma; experiment: T cell stimulation assay, B:9-23 activated TCR BDC 12-4.1; type: cell-based; conditions: Mus musculus, read-out: IC50 for anti-B:9-23 TCRs BDC 12-4.1
[3] = system: human T cell receptor recognizing insulin B:9-23 presented by human DQ8; experiment: Inhibition of human T cell receptor recognizing insulin B:9-23 presented by human DQ8; type: cell-based; conditions: for Inhibition of human T cell receptor recognition of insulin B:9-23 presented by human DQ8: screen of DQ8 pocket 1 and pocket 9 compounds; for Concentration at which inhibition is exhibited: DQ8 pocket 1 and pocket 9 compounds studied in detail
Excerpt: Using a TCR sequence obtained from a T cell line generated from the peripheral blood of a diabetic individual with DQ8 molecule, a TCR was identified that is DQ8 restricted and responds to the insulin B:9-23 peptide.
Molecules predicted to occupy pockets 1 and 9 of the human DQ8 peptide binding groove were identified using in silico molecular docking program. The top scoring compounds for each pocket were screened for their ability to inhibit anti-B:9-23 T cell responses. FIGS. 9A and 9B represent the results of the T cell stimulation assay for compounds occupying pocket 1 and pocket 9 of the human DQ8 peptide binding groove, respectively.

[4] = system: CD3-stimulated T cell hybridomas; experiment: CD3-stimulated T cell hybridomas (specificity control); type: cell-based
Excerpt: The small molecules p1:4, p1:12 and p1:16 were studied in additional detail.

[5] = target: DQ8 (Homo sapiens, UniProt P01909+P01920, A209T/A45G/C70Q/D89A/DUP78-78/E183D/E77G/F237L/G63E/H199R/I129T/K197E/L178F/L74F/L98V/Q57E/Q76R/S185I/S97I/T217I/T49S/V73L/Y58L); experiment: Competitive binding assay B:9-23 to DQ8
[6] = system: BDC 2.5 T cell hybridoma; experiment: Chromogranin peptide mimotope presentation by I-A^g^7 to BDC 2.5 T cell hybridoma; type: cell-based, mouse; conditions: specificity test
[7] = system: 5KC cells transduced with a 4-8 TCR; experiment: Endogenous insulin presentation: whole insulin with I-A^g^7 splenocytes and 4-8 TCR transduced 5KC cells; type: cell-based, mouse; conditions: whole insulin with I-A^g^7 containing splenocytes
Procedure: The ability of the small molecules to block endogenous insulin presentation was tested. Incubation of whole insulin with I-A^g^7 containing splenocytes activates 5KC cells (T cell hybridoma lacking endogenous TCRα and β chains) transduced with a 4-8 TCR. […] To document direct effects of these small molecules on inhibiting peptide binding to I-A^g^7, an I-A^g^7 protein construct was expressed in baculovirus with a linked peptide. The flexible linker contained a thrombin cleavage site, allowing for thrombin cleavage of the linker and release of the peptide.

[8] = >100 uM means some effect at 100 uM but not 50% inhibition, < means lower concentrations not used

Compound | IC50 [5] | Competitive Binding Assay B:9-23 to DQ8 (IC50) [5, 8] | further results
Nc1nc(N)c2nn[nH]c2n1 |  |  | IC50 ([1]; B:9-23 activated TCR): 25.5 µM; IC50 ([2]; B:9-23 activated TCR): 24 µM
C1CN2CN1CN1CCN(C1)C2 |  |  | IC50 ([1]; B:9-23 activated TCR): 48.8 µM; IC50 ([2]; B:9-23 activated TCR): 2.8 µM
NC1(N)Sc2nc3ccccc3nc2S1 |  |  | IC50 ([1]; B:9-23 activated TCR): 70.4 µM; IC50 ([2]; B:9-23 activated TCR): 14.8 µM
O=S1(=O)N2CN3CCN(C2)N1C3 |  |  | IC50 [1]: 28.4 µM; IC50 [2]: 0.5 µM
5-((2,5-dichloro-4-(hydroxy(oxido)amino)phenyl)diazenyl)-2-imino-4-methyl-2,3-dihydro-1,3-thiazole [p1:21] |  |  | Inhibition of human T cell receptor recognition of insulin B:9-23 presented by human DQ8 [3]: able to inhibit
O=Nc1c(S(=O)(=O)O)cc2cc(S(=O)(=O)O)cc(O)c2c1O [p1:4, 4,5-dihydroxy-3-nitroso-2,7-naphthalenedisulfonic acid] |  |  | Concentration at which inhibition is exhibited [3]: nanomolar; Inhibition of human T cell receptor recognition of insulin B:9-23 presented by human DQ8 [3]: able to inhibit; Response of CD3-stimulated T cell hybridomas [4]: did not change response
NC(=O)c1cc(Br)cc(C2CCCCC2)c1O [p1:12, 5-bromo-3-cyclohexyl-2-hydroxybenzamide] |  |  | Concentration at which inhibition is exhibited [3]: nanomolar; Inhibition of human T cell receptor recognition of insulin B:9-23 presented by human DQ8 [3]: able to inhibit; Response of CD3-stimulated T cell hybridomas [4]: did not change response
O=C(O)COc1ccc(I)cc1I [p1:16, (2,4-diiodophenoxy)acetic acid] |  |  | Concentration at which inhibition is exhibited [3]: nanomolar; Inhibition of human T cell receptor recognition of insulin B:9-23 presented by human DQ8 [3]: able to inhibit; Response of CD3-stimulated T cell hybridomas [4]: did not change response
COC(=O)COc1ccc(Cl)cc1C(=O)O [p1:18, 5-chloro-2-(2-methoxy-2-oxoethoxy) benzoic acid] |  |  | Inhibition of human T cell receptor recognition of insulin B:9-23 presented by human DQ8 [3]: able to inhibit
COc1ccc2c(n1)Sc1c(N)nc(N)nc1N2 [p1:22, 7-methoxy-10H-pyrido[2,3-b]pyrimido[4,5-e][1,4]thiazine-2,4-diamine] |  |  | Inhibition of human T cell receptor recognition of insulin B:9-23 presented by human DQ8 [3]: able to inhibit
Nc1nc(O)c2nc(S)c(C(=O)O)nc2n1 [p1:25, 2-amino-4-hydroxy-6-mercapto-7-pteridine carboxylic acid] |  |  | Inhibition of human T cell receptor recognition of insulin B:9-23 presented by human DQ8 [3]: able to inhibit
N=C(N)NC(=N)Nc1ccccc1Cl [p4:1] | > 100 µM |  | 
[H]/N=C(\N/C(N)=N/[H])Nc1ccc([N+](=O)[O-])cc1 [p4:2] |  | No inhibition | 
[H]/N=C(\NCC[N+](C)(C)C)NN([O-])O [p4:3] |  | No inhibition | 
[H]/N=C(/N/N=C/c1ccncc1)NN(O)O [p4:4] |  |  | Competitive Binding Assay B:9-23 to DQ8 (IC50) [5]: No inhibition
CC1CNC2C(=O)NC(=O)NC2N1 (stereo not shown) [p4:5] | > 100 µM |  | 
CN(Cc1ccccc1)Cn1ccnc1 [p4:6] |  | No inhibition | 
[H]/N=C(\NCCN(C)C)NN(O)O [p4:7] | < 100 µM |  | 
[H]/N=C(\NCCOC(C)=O)NN(O)O [p4:8] |  | No inhibition | 
NC(=O)N/N=C/C1CNCCN1 (stereo not shown) [p4:9] |  | No inhibition | 
[H]/N=C(/Nc1ccc(Cl)cc1)NN(O)O [p4:12] | > 100 µM |  | 

Compound | IC50 [5] | Competitive Binding Assay B:9-23 to DQ8 (IC50) [5, 8] | further results
c1cc[n+](CC[n+]2ccccc2)cc1 [p4:13] |  | No inhibition | 
NC(Cn1ccc(=O)c(O)c1)C(=O)O (stereo not shown) [p4:14] |  | No inhibition | 
Clc1ccc(Cl)c(OCC2=NCCN2)c1 [p4:15] | > 100 µM |  | 
[H]/N=C(\NN(O)O)NS(=O)(=O)c1ccccc1 [p4:17] | > 100 µM |  | 
[H]/N=C(\N)NCCC(N)C(=O)O (stereo not shown) [p4:18] |  | No inhibition | 
[H]/N=C(\NCCCCl)NN(O)O [p4:19] | > 100 µM |  | 
CCCC(N)C(=O)NC(C(=O)O)C(C)C (stereo not shown) [p4:20] (H-[Nva]-Val-OH; configuration not given here) | > 100 µM |  | 
c1ccc(CCN2CCCCCCCC2)nc1 [p4:21] |  | No inhibition | 
Oc1ncnc2[nH]c(C(O)c3ccccc3)nc12 (stereo not shown) [p4:22] | > 100 µM |  | 
NC(=O)N/N=C/Cn1cc([N+](=O)[O-])c(=O)[nH]c1=O [p4:23] | > 100 µM |  | 
[H]/N=C(\NCCC#N)NN(O)O [p4:24] |  | No inhibition | 
[H]/N=C(\NCCS(C)(=O)=O)NN(O)O [p4:26] |  | No inhibition | 
[H]/N=C(/NCc1ccccc1)NN(O)O [p4:28] | > 100 µM |  | 
CCC(N)C(O)c1ccccc1 (stereo not shown) [p4:30] |  |  | Competitive Binding Assay B:9-23 to DQ8 (IC50) [5]: No inhibition
[H]/N=C(\NCCOC)NN(O)O [p4:31] | > 100 µM |  | 
CC1C(c2ccccc2)OCN1C (stereo not shown) [p4:32] | < 100 µM |  | 
OC1CN(Cc2ccccc2)CC1O (stereo not shown) [p4:33] |  | No inhibition | 
NC(CCCC(N)C(=O)O)C(=O)O (stereo not shown) [p4:34] | > 100 µM |  | 
CCCCN(C)C12CN3CN(CN(C3)C1)C2 [p4:35] | > 100 µM |  | 
C[N+]1(C/C=C/Cl)CN2CNCN(C2)C1 (stereo not shown) [p6:2] |  | No inhibition | 
NC1CC2NC3CCCCC3NC2CC1N (stereo not shown) [p6:7] |  | No inhibition | 

Compound | IC50 [5] | Competitive Binding Assay B:9-23 to DQ8 (IC50) [5, 8] | further results
C[N+]1(C/C=C/CCl)CN2CNCN(C2)C1 (stereo not shown) [p6:8] |  | No inhibition | 
CN1C(=O)C(N)C(N)N(C)C1=O (stereo not shown) [p6:16] |  | No inhibition | 
O=[PH](O)C(O)c1ccccc1 (stereo not shown) [p6:17] | > 100 µM |  | Inhibition of chromogranin presentation to the BDC 2.5 hybridoma [6]: no inhibition
CN(C)C(Cl)(N(C)C)C(Cl)(N(C)C)N(C)C [p6:18] | > 100 µM |  | IC50 for blocking T cell stimulation from endogenously processed insulin [7]: low nanomolar
NCc1c(Cl)c(Cl)c(Cl)c(CN)c1Cl [p6:19] | > 100 µM |  | 
COC(=O)C(C=C(Cl)Cl)N1CCNCC1 (stereo not shown) [p6:23] | > 100 µM |  | 
NCC(=O)NC(Cc1ccc(O)cc1)C(=O)O (stereo not shown) [p6:24] (H-Gly-[ξY]-OH) | > 100 µM |  | 
C1CCCNCCNCCNCC1 [p6:27] |  | No inhibition | 
CC1(CO)COC(=O)C(C)(C2(C)NC(C)(CO)COC2=O)N1 (stereo not shown) [p6:28] |  | No inhibition | 
NC1(COS(=O)(=O)O)CCN1 (stereo not shown) [p6:30] |  | No inhibition | 
O=C1CN(C2CCCCC2N2CC(=O)NC(=O)C2)CC(=O)N1 (stereo not shown) [p6:31] |  | No inhibition | 
C=CC(OC(=O)CC)(c1ccccc1)C1CCNCC1 (stereo not shown) [p6:32] |  |  | Competitive Binding Assay B:9-23 to DQ8 (IC50) [5]: No inhibition
N=C(N)c1ccc(/C=C/c2ccc(C(=N)N)cc2)cc1 [p6:33] |  | No inhibition | 
CC(=O)N1C(=O)C2(NCCCN2)c2ccccc21 [p6:34] | < 100 µM |  | 
O=P(O)(O)CCCP(=O)(O)O [p9:1, 3-phosphonopropylphosphonic acid] |  |  | Inhibition of human T cell receptor recognition of insulin B:9-23 presented by human DQ8 [3]: able to inhibit
O=C(O)COC1C=CC(=O)N(CC(=O)O)N1 (stereo not shown) [p9:5, 3-(carboxymethoxy)-6-oxo-3,6-dihydro-1(2H)-pyridazinyl acetic acid] |  |  | Concentration at which inhibition is exhibited [3]: nanomolar; Inhibition of human T cell receptor recognition of insulin B:9-23 presented by human DQ8 [3]: able to inhibit
O=S(=O)(O)C(O)CC(O)S(=O)(=O)O (stereo not shown) [p9:10, 1,3-dihydroxy-1,3-propanedisulfonic acid] |  |  | Inhibition of human T cell receptor recognition of insulin B:9-23 presented by human DQ8 [3]: able to inhibit
O=C(O)C(S)CC(S)C(=O)O (stereo not shown) [p9:17, 3-deoxy-2,4-dithiopentaric acid] |  |  | Inhibition of human T cell receptor recognition of insulin B:9-23 presented by human DQ8 [3]: able to inhibit
O=S(=O)(O)CCc1nnn[nH]1 [p9:23, 2-(1H-tetraazol-5-yl)ethanesulfonic acid] |  |  | Concentration at which inhibition is exhibited [3]: nanomolar; Inhibition of human T cell receptor recognition of insulin B:9-23 presented by human DQ8 [3]: able to inhibit
CC=C1C(C(=O)O)C1C(=O)O (stereo not shown) [p9:35, 3-ethylidene-1,2-cyclopropanedicarboxylic acid] |  |  | Inhibition of human T cell receptor recognition of insulin B:9-23 presented by human DQ8 [3]: able to inhibit
